Measured values from ChEMBL document CHEMBL1136903, “Spiroimidazolidinone NPC1L1 inhibitors. 1: Discovery by 3D-similarity-based virtual screening” (Bioorg Med Chem Lett, 2009).
Activity calls are given as the source filed them. No cut-off for these calls is given here.

Columns and labels:
[1] = Displacement of [35S](2S,3S,4S,5R,6S)-6-(4-((2S,3R)-3-((S)-3-(4-fluorophenyl)-3-hydroxypropyl)-1-(4-(3-(methylsulfonamido)prop-1-ynyl)phenyl)-4-oxoazetidin-2-yl)phenoxy)-3,4,5-trihydroxytetrahydro-2H-pyran-2-carboxylic acid from NPC1L1 in pig enterocyte brush border membrane; design: species or system Sus scrofa
[2] = molecular target: NPC1-like intracellular cholesterol transporter 1 (Rattus norvegicus, UniProt Q6T3U3); assay: Displacement of [35S](2S,3S,4S,5R,6S)-6-(4-((2S,3R)-3-((S)-3-(4-fluorophenyl)-3-hydroxypropyl)-1-(4-(3-(methylsulfonamido)prop-1-ynyl)phenyl)-4-oxoazetidin-2-yl)phenoxy)-3,4,5-trihydroxytetrahydro-2H-pyran-2-carboxylic acid from NPC1L1 in rat enterocyte brush border membrane
Sequence of NPC1-like intracellular cholesterol transporter 1 (Q6T3U3 21-1331 limits assumed): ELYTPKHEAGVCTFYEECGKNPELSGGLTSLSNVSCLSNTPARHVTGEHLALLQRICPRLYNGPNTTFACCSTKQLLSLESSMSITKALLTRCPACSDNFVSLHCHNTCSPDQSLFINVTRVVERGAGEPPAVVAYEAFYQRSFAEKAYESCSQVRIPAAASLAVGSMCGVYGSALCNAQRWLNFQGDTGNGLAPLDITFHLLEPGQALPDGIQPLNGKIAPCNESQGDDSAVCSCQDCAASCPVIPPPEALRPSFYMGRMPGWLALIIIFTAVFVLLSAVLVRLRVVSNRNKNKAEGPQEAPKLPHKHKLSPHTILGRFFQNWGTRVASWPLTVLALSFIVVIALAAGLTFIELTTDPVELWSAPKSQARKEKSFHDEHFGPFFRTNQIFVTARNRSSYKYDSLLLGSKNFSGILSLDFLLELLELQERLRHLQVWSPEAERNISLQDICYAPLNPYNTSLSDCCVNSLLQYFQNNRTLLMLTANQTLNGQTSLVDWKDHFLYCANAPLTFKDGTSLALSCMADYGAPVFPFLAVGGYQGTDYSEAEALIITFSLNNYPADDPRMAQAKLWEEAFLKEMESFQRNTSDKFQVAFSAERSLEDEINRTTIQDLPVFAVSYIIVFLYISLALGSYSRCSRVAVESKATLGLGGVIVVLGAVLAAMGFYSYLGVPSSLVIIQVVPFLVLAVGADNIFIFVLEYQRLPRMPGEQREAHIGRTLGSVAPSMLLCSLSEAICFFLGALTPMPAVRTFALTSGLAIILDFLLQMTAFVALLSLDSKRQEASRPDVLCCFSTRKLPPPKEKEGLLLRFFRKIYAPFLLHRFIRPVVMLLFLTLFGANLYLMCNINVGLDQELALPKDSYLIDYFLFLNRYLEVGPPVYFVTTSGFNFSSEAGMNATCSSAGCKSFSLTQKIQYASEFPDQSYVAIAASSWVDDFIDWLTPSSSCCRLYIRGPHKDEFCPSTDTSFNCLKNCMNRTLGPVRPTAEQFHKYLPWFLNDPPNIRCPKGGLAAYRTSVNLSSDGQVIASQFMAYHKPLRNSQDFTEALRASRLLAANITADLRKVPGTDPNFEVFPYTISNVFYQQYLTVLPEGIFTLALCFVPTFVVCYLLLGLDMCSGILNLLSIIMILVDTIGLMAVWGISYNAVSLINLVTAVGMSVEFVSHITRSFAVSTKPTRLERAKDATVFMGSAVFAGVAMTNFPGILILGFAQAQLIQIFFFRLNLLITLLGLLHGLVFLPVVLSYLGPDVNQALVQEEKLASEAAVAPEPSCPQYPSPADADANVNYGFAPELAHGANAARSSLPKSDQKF

[3] = test system: Mus musculus; assay: Inhibition of plasma [3H]cholesterol absorption in C57BL/6 mouse at 0.2 ml in 0.25% methocel suspension, po dosed 30 mins before [3H]cholesterol administration measured after 1.5 to 5 hrs; assay type: functional, organism-based
[4] = test system: Mus musculus; assay: Inhibition of liver [3H]cholesterol absorption in C57BL/6 mouse at 0.2 ml in 0.25% methocel suspension, po dosed 30 mins before [3H]cholesterol administration measured after 1.5 to 5 hrs; assay type: functional, organism-based

| IC50 [1] [nM] | IC50 [2] [nM] | SMILES | inhibition [3] | inhibition [4] |
| --- | --- | --- | --- | --- |
| 13 | 16 | CS(=O)(=O)NCC#CN1C(=O)[C@H](CC[C@H](O)c2ccc(F)cc2)[C@H]1c1ccc(O[C@@H]2O[C@H](C(=O)O)[C@@H](O)[C@H](O)[C@H]2O)cc1 |  |  |
| 320 | 580 | O=C(O)[C@H]1O[C@@H](Oc2ccc([C@@H]3[C@@H](CC[C@H](O)c4ccc(F)cc4)C(=O)N3c3ccc(F)cc3)cc2)[C@H](O)[C@@H](O)[C@@H]1O |  |  |
| > 500000 | 34000 | O=C([C@@H]1C[C@@H](c2ccccc2)CN1C(=O)c1ccccc1)N1CCC2(C=Cc3ccccc32)CC1 |  |  |
| > 500000 | 110000 | CC(C)(C)c1ccc(C(=O)N2CCC3(CC2)C(=O)N(CC(=O)N2CCCCC2)CN3c2ccccc2)cc1 | inactive | inactive |
